Data as given in patent publication US10322137B2, “Platinum compounds, compositions, and uses thereof” (PLACON THERAPEUTICS, INC., priority 2014, dated 2019).
One block for each compound: values may come before it.

Legend:
[1] = test system: BxPC-3 (pancreatic) xenografts, KRAS wild type; assay: BxPC-3 xenograft tumor growth inhibition; type: in vivo, mice; settings: Table 4-2; compound 5 at 15 mg/kg iv twice weekly
Procedure: (§1) Tumor measurements were taken twice weekly, using vernier calipers.
(§2) All statistical analyses were performed using GraphPad PRISM®. Version 6.00.

H460 tumors = assay: Tumor platinum levels in H460 tumor-bearing nude mice (ICP-MS); type: in vivo; settings: dosed at 4 mg/kg, 24-hour time point
Procedure: To examine the ability of compounds disclosed herein to accumulate in tumors, a murine cancer model was used. Animals were inoculated with 5×10^5 H460 […] lung cancer cells via subcutaneous injection to the flank. Tumors were allowed to reach an approximate volume of ˜500 mm^3. Animals were then randomized into treatment groups of 3 animals per time point and were dosed at 4 mg/kg. The 24-hour time point was used as a benchmark across compounds.
Tumor platinum levels were determined by inductively coupled plasma mass spectrometry (ICP-MS). Tumors were excised from animals and dissolved in fuming nitric acid (60% w/w) by adding four parts nitric acid to 1 part tumor w/w and heating overnight at 60° C. The resulting digest was diluted 1:10 in ICP-MS analysis buffer (1% nitric acid, 2% Triton® X-100), and directly introduced into the ICP-MS unit by peristaltic pump. The end dilution factor for the samples as introduced to the ICP-MS was 50×.

[2] = test system: MX-1 human breast cancer xenograft (BRCA1 and BRCA2 mutant); assay: MX-1 human breast cancer xenograft study; type: in vivo, mice
Procedure: as §1, §2
Tumor volumes of MX-1 induced xenografts in mice were measured after multiple intravenous doses of compound 8 at 15 mg/kg at day 1, day 5, day 8 and day 12 (two times per week for two weeks) for the main study group. […] MX-1 cell line is estrogen receptor negative and Her2 normal. It is BRCA1 and BRCA2 mutant: BRCA1 truncating mutation (3363delGAAA) and BRCA2 mutations (16864A>C, Asn289His, and 22184A>G, Asn991Asp). Satellite groups (n=5) were collected on Day 9 for platinum tumor measurements. […] Only one tumor from the 10 mg/kg group began to grow back at on Day 71, with a volume of 39 mm^3 at end of study, Day 75.

[3] = in vivo
Procedure: (§3) Platinum concentrations in rat (n=3) and dog (n=3) were both measured in a course of 100 hours and 400 hours, respectively.

[4] = test system: NCI-H520 lung cancer (NSCLC) model; assay: NCI-H520 multiple dose study: tumor volume, platinum levels, IHC and TUNEL; type: in vivo; settings: day 10, FIG. 24 and 25
Procedure: Tumor volumes and platinum levels were tracked over a course of 32 days after treatment of multiple doses of compound 8 (dosed at days 0, 3, 7 and 10) in lung cancer (NSCLC) model NCI-H520. Compound 8 was dosed at 15 mg/kg.
Cell dedifferentiation and apoptosis were studied with immunohistochemical (IHC) and TUNEL stainings.

[5] = test system: A2780 (ovarian) xenografts; settings: compound 8 at 20 mg/kg, FIG. 20
Procedure: In these experiments, the ability of compounds to affect the growth of human Calu-6 NSCLC (non-small cell lung cancer) A2780 (ovarian), MIA Paca-2 (pancreatic) and BxPC-3 (pancreatic) xenografts was tested. […] For the MIA Paca-2, BxPC-3 in vivo studies, the tumor material was maintained by serial engraftment in female nude NCR nude mice. To initiate tumor growth, a 1 mm^3 fragment was implanted subcutaneously in the right flank of each test animal. The animals were 9 and 10-11 weeks old at the time the study started for BxPC-3 and MIA Paca-2 models, respectively. For the MX-1 in vivo studies, tumor material was maintained by serial engraftment in athymic nude mice. To initiate tumor growth a 3×3 mm pieces implanted subcutaneously in the right flank of each test animal. The animals were 5 weeks old at the time of implantation.
Tumor measurements were taken twice weekly, using vernier calipers. Tumor volume was calculated using the formula: V=0.5×width×width×length.
When tumors approached a volume of 100 mm^3, mice were randomized into three groups of ten animals. […] Mice were dosed twice weekly for the duration of the study. […] Twenty-four hours after the final dose tumor volumes were measured again for calculation of tumor growth inhibition. […] Final tumor volumes were analyzed using with a one-way analysis of variance and Tukey multiple comparison test.

[6] = target: albumin tryptic peptide T3 (Homo sapiens, UniProt P02768); assay: LC MS/MS analysis with albumin tryptic peptide T3; type: binding; settings: FIG. 11B
Chain of albumin tryptic peptide T3 (P02768 45-65 limits assumed): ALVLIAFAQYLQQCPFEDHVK
Text: Signals of T3 endogenous conjugates and T3-Compound 8 conjugates were observed and were evidence that Compound 8 binds to T3.

[7] = in vivo; remark: listed apart in the source
Procedure: as §3

Compound: O=C1[O][Pt]2([NH][C@@H]3CCCC[C@H]3[NH]2)[O]C1=O [Oxaliplatin]
TGI % [1]: 21.0%
Platinum in tumor (H460 tumors): 0.12 mM/mmole/kg platinum dosed

Compound: N.N.[Cl][Pt][Cl] [Cisplatin, reference compound]
TGI % at Day 12 ([2]; 3 mg/kg, day 1, 5, 8, 12): 95.1%
tumor regrowth at end of study, Day 75 ([2]; cisplatin treated group, 3 mg/kg): no tumor regrowth
Platinum in tumor (H460 tumors): 0.27 mM/mmole/kg platinum dosed

Compound: CC(=O)[O][Pt]([NH2])([NH2])([Cl])([Cl])[O]C(=O)NCCCCCN1C(=O)C=CC1=O [Compound 8]
Half-life Dog [3]: 174 h
tumor regrowth at end of study, Day 75 ([2]; 15 mg/kg group): no tumor regrowth
tumor volume outcome ([2]; day 12): Tumor disappeared
platinum delivered to the tumor versus cisplatin ([2]; satellite groups, Day 9, FIG. 30): higher concentrations of platinum to the tumor than cisplatin
apoptosis and dedifferentiation (IHC, TUNEL) [4]: significant and sustained increase in apoptosis and dedifferentiation
tumor inhibition versus cisplatin [5]: superior efficacy in tumor inhibition compared to cisplatin
binding to albumin tryptic peptide T3 [6]: binds to T3
Half-life Rat [7]: 44 h

Platinum in tumor (H460 tumors): 0.57 mM/mmole/kg platinum dosed
Compound: acetate 6-(2,5-dioxo-2H-pyrrol-1(5H)-yl) hexanoate oxaliplatin [Compound 1]
